Source: publication PMC9852552, “Emission of floral volatiles is facilitated by cell-wall non-specific lipid transfer proteins” (Nature Communications, 2023)
Several values for one entry are separate records, joined by “and”; a condition that tells them apart may be missing. Identical values can stand only once. Like-named read-outs stand apart in the source and are kept apart here.

Tests used:
recombinant PhnsLTP3 = experiment: TNS displacement assay with recombinant PhnsLTP3; type: binding, Petunia hybrida; conditions: for Kd / Percentage fluorescence quenched: PhnsLTP3 1 µM, TNS 3 µM; for Kd: means ± S.E., n = 3; for Percentage fluorescence quenched: three biological replicates (c2-c4); for Percentage fluorescence quenched (%): biological replicates 1-3, Supplementary Figure 16
Protocol: (§1) To directly test whether PhnsLTP3 can bind petunia VOCs, in vitro displacement assays were performed using the recombinant PhnsLTP3 protein and fluorescent 6-(p-toluidino)−2-naphthalenesulfonate (TNS) in the presence of petunia volatiles. […] TNS fluoresces strongly when bound to the hydrophobic regions of the protein, while it has weak fluorescence in an aqueous solution. […] Potential ligands of the protein will displace the bound TNS from the hydrophobic protein pocket into the aqueous environment leading to a decrease in the fluorescent signal, which was used to calculate the dissociation constant of the protein with ligand. […] To test whether PhnsLTP2 and PhnsLTP3 can bind other VOCs, we assayed the terpenoids: limonene, linalool, and nerolidol, as well as methyl jasmonate in TNS displacement assays. Both PhnsLTP2 and PhnsLTP3 were able to bind tested volatile compounds with Kds in the micromolar range (Supplementary Figs. 16 and 17).
Fig. 5 Binding kinetics of recombinant PhnsLTP3 with VOCs emitted by petunia flowers. TNS displacement assays were performed at fixed concentrations of PhnsLTP3 (1 µM) and TNS (3 µM) and the fluorescence was measured before and after the tested compounds were added at various concentrations. The results are expressed as percentage of fluorescence quenched with respect to the concentration of added compound. The binding curves were obtained by non-linear fitting to the Michaelis-Menten equation (solid line in the graph) and the dissociation constants Kd [µM] were obtained. […] All data are means ± S.E. (n = 3 biological replicates).
(§2) The fluorescence-based-binding assays were performed largely according to previous publications[12],[52] with slight modifications. […] All mixtures were excited at 320 nm, and the fluorescence emission at 437 nm was recorded using a plate reader (SpectraMax iD3, Molecular Devices) at equilibrium after 5 min of incubation at 25 °C giving the background fluorescence Fmix0 and FTNS0 . The tested ligands dissolved in 2 µL DMSO were then added to the mixtures and TNS only to different final concentrations, and the fluorescence emissions were recorded at equilibrium after 5 min of incubation ( Fmixligand and FTNSligand ). To account for the change in the TNS fluorescence intensity upon adding the solvent DMSO, the background fluorescence of TNS ( FTNSsol ) as well as each PhnsLTP with TNS ( Fmixsol ) were measured. The ratios RTNS=FTNSsol/FTNS0 and Rmix=Fmixsol/Fmix0 were calculated to calibrate the fluorescence. Three measurements were taken for each concentration. The results were expressed as a percentage of fluorescence quenched Fmixligand/Rmix−FTNSligand/RTNS/Fmix0−FTNS0×100% . The corresponding dissociation constants kd were obtained by non-linear regression fitting of the binding kinetics to the Michaelis-Menten equation.
The binding curves of PhnsLTP3 with various VOC compounds were obtained by non-linear fitting to the one-binding-site (Eq. (1)) and two-binding-site (Eq. (2)) models. The equations assume that the ligand binds to multiple independent binding sites and that the binding to each site follows the law of mass action:1 %offluorescencequenched=Bmax×[TNS]/kd+[TNS] 2 %offluorescencequenched=Bmax1×[TNS]/kd1+[TNS]+Bmax2×[TNS]/kd2+[TNS] […]
PhnsL TP3 (1 µ M)and TNS (3 µ M)and the fluorescence was measured before and after the tested compounds were added at various concentrations. The results are expressed as percentage of fluorescence quenched with respect to the concentration of added compound.
The binding curves were obtained by non-linear fitting to the Michaelis-Menten equation (solid line in the graph) and the dissociation constants Kd [µ M]were obtained. All data are means ±S.E. (n = 3 biological replicates).
Supplementary Figure 25 | Analysis of number of binding sites of PhnsLTP3.
TNS displacement assay was performed at fixed concentrations of PhnsLTP3 (1 µM) and TNS (3 µM) and the fluorescence was measured before and after methyl […]

recombinant PhnsLTP2 = experiment: TNS displacement assay with recombinant PhnsLTP2; type: binding, Petunia hybrida; conditions: PhnsLTP2 1 µM, TNS 3 µM; non-linear fitting to Michaelis-Menten equation; means ± S.E., n = 3; read-out: dissociation constant Kd (PhnsLTP2)
Protocol: as §1, §2
Supplementary Figure 16 | Binding kinetics of recombinant PhnsLTP2 with phenylpropanoids/benzenoids by petunia flowers, terpenoids and methyl jasmonate.
TNS displacement assays were performed at fixed concentrations of PhnsLTP2 (1 µM) and TNS (3 µM) and the fluorescence was measured before and after the tested compounds were added at various concentrations. The results are expressed as percentage of fluorescence quenched with respect to the concentration of added compound. The binding curves were obtained by non-linear fitting to the Michaelis-Menten equation (solid line in the graph) and the dissociation constants Kd [µM] were obtained. Phenylacetaldehyde, eugenol, and […]
corresponding binding curves. All data are means ±S.E. (n = 3 biological replicates).

petunia flowers = experiment: Phenylalanine feeding: total VOC emission and total pools; type: in vivo, Petunia hybrida; conditions: for Total pools / Total emission: biological replicates 1-3; for absolute increase over 2 h in VOC emission rate upon Phe feeding: 150 mM Phe, 19:00 to 22:00 h
Excerpt: Such reduction in VOC emission could be the result of diminished VOC transport across the cell wall, decreased VOC biosynthesis or both. […] Recently, we have shown that the VOC redistribution and reduction of their levels in the cuticle decrease their release from the cell and reduce carbon flux to Phe, which is the precursor for petunia VOCs[8]. […] Thus, to distinguish between the contribution of VOC transport and Phe limitation in VOC biosynthesis, control and PhnsLTP3-RNAi-R5 flowers were fed with Phe, and total VOC emission and total pools were measured from 19:00 to 22:00 h (Supplementary Fig. 20).
Floral volatile emission was analyzed by dynamic headspace collection of volatiles at 25 °C on columns containing 20 mg Porapak Q (80–100 mesh) (Sigma-Aldrich) and analyzed on an Agilent 6890N-5975B GC–MS system as described previously[7],[8],[43] with minor modifications. Briefly, emitted volatiles were collected from detached transgenic and wild-type flowers from 19:00 to 22:00 h on day 2 postanthesis. Adsorbed volatiles were eluted from collection columns with 280 μL dichloromethane containing 52 nmol of naphthalene as the internal standard. For analysis of total petal pools, 0.5 g of petal tissue from transgenic and control plants was collected at 22:00 h on day 2 postanthesis, ground to a fine powder in liquid nitrogen, and total petal pools were extracted in 5 mL of dichloromethane containing 52 nmol of internal standard (naphthalene) for 12 h at −20 °C. Samples were then warmed up, vortexed and concentrated to 200 μL under a stream of nitrogen gas before injection into GC–MS (Agilent 6890N-5975B). All GC–MS data were collected and analyzed using Agilent MSD ChemStation F.01.03.2357 software. For phenylalanine feeding, flowers from wild type and PhnsLTP3-RNAi were harvested and placed in 150 mM of phenylalanine solution. Emitted volatiles and their total petal pools were sampled every hour from 16:00 till 19:00 h and from 19:00 till 22:00 h and analyzed as described above.
Supplementary Figure 20 | Total VOC emission and their total pools in control and PhnsLTP3-RNAi petunia flowers fed with 150 mM Phe. Total VOC emission (a) and total pools (b) in wild-type (WT) and PhnsLTP3-RNAi-R5 line fed with 150 mM Phe from 19:00 to 22:00 h. Data are means ± S.E. (n = 3 biological replicates). […]
determined by two-way ANOV Awith P = 0.0086. […]

[1] = non-linear fitting to Michaelis-Menten equation (one binding site), read-out: dissociation constant Kd (PhnsLTP3)

| Structure (SMILES) | Kd (recombinant PhnsLTP3; [1]) | Percentage fluorescence quenched (recombinant PhnsLTP3; VOC concentration 3 µM) | Percentage fluorescence quenched (recombinant PhnsLTP3; VOC concentration 30 µM) | Percentage fluorescence quenched (recombinant PhnsLTP3; VOC concentration 300 µM) | Percentage fluorescence quenched (recombinant PhnsLTP3; VOC concentration 1500 µM) | Percentage fluorescence quenched (recombinant PhnsLTP3; VOC concentration 3000 µM) | Kd (recombinant PhnsLTP2) | further results |
| --- | --- | --- | --- | --- | --- | --- | --- | --- |
| COc1cc(C=O)ccc1O [Vanillin] | 26.3 ± 10.4 µM | 5.78% and 5.07% and 1.21% | 6.62% and 14.22% and 7.63% | 35.76% and 34.45% and 15.77% | 17.05% and 24.17% and 26.21% | 22.96% and 20.23% and 21.72% | 114 ± 12.9 µM |  |
| C=C(C)[C@H]1CC=C(C)CC1 [Limonene] | 26.7 ± 14.2 µM |  |  |  |  |  | 126 ± 43.6 µM |  |
| OCc1ccccc1 [Benzyl alcohol] | 208 ± 74.2 µM |  | 3.06% and 3.64% and 9.84% | 23.75% and 24.96% and 17.77% | 32.13% and 29.61% and 29.01% | 34.41% and 38.89% and 34.26% | 399 ± 261 µM |  |
| N[C@@H](Cc1ccccc1)C(=O)O [Phe, L-phenylalanine] |  |  |  |  |  |  |  | Total pools (petunia flowers; PhLTP3-RNAi-5 + Phe, 19:00 h): 440.17 nmol g FW-1 and 381.25 nmol g FW-1 and 288.77 nmol g FW-1; Total emission (petunia flowers; PhLTP3-RNAi-5 + Phe, 20:00 h): 837.22 nmol g FW-1 h-1 and 1059.64 nmol g FW-1 h-1 and 828.44 nmol g FW-1 h-1; Total pools (petunia flowers; PhLTP3-RNAi-5 + Phe, 20:00 h): 756.94 nmol g FW-1 and 1050.75 nmol g FW-1 and 883.29 nmol g FW-1; Total emission (petunia flowers; PhLTP3-RNAi-5 + Phe, 21:00 h): 2356.48 nmol g FW-1 h-1 and 1887.30 nmol g FW-1 h-1 and 1311.64 nmol g FW-1 h-1; Total pools (petunia flowers; PhLTP3-RNAi-5 + Phe, 21:00 h): 1249.12 nmol g FW-1 and 1300.32 nmol g FW-1 and 829.02 nmol g FW-1; Total emission (petunia flowers; PhLTP3-RNAi-5 + Phe, 22:00 h): 2845.33 nmol g FW-1 h-1 and 2241.14 nmol g FW-1 h-1 and 2347.25 nmol g FW-1 h-1; Total pools (petunia flowers; PhLTP3-RNAi-5 + Phe, 22:00 h): 913.29 nmol g FW-1 and 1187.03 nmol g FW-1 and 1389.76 nmol g FW-1; absolute increase over 2 h in VOC emission rate upon Phe feeding (petunia flowers; PhnsLTP3-RNAi-R5 flowers): 1569 ± 76 nmol g FW^−1; Total pools (petunia flowers; WT + Phe, 19:00 h): 363.34 nmol g FW-1 and 564.43 nmol g FW-1 and 340.47 nmol g FW-1; Total emission (petunia flowers; WT + Phe, 20:00 h): 1481.84 nmol g FW-1 h-1 and 2333.99 nmol g FW-1 h-1 and 1404.14 nmol g FW-1 h-1; Total pools (petunia flowers; WT + Phe, 20:00 h): 885.56 nmol g FW-1 and 1126.01 nmol g FW-1 and 1295.32 nmol g FW-1; Total emission (petunia flowers; WT + Phe, 21:00 h): 1814.62 nmol g FW-1 h-1 and 2602.15 nmol g FW-1 h-1 and 2554.66 nmol g FW-1 h-1; Total pools (petunia flowers; WT + Phe, 21:00 h): 1190.78 nmol g FW-1 and 1426.22 nmol g FW-1 and 956.14 nmol g FW-1; Total emission (petunia flowers; WT + Phe, 22:00 h): 3087.41 nmol g FW-1 h-1 and 2626.99 nmol g FW-1 h-1 and 3838.92 nmol g FW-1 h-1; Total pools (petunia flowers; WT + Phe, 22:00 h): 1455.77 nmol g FW-1 and 972.77 nmol g FW-1 and 1086.37 nmol g FW-1; absolute increase over 2 h in VOC emission rate upon Phe feeding (petunia flowers; wild-type flowers): 1444 ± 298 nmol g FW^−1 |
| COC(=O)c1ccccc1 [Methylbenzoate] | 271 ± 91.1 µM | 6.48% and 6.57% (2×) | 10.07% and 16.15% and 14.94% | 37.30% and 35.09% and 38.77% | 74.64% and 66.75% and 71.33% | 78.82% and 71.40% and 74.18% | 534 ± 302 µM | Kd (recombinant PhnsLTP3; two-binding-site fit, read-out: dissociation constant Kd1 (PhnsLTP3, two-binding-site model)): 521 ± 89.5 µM; Kd (recombinant PhnsLTP3; two-binding-site fit, read-out: dissociation constant Kd2 (PhnsLTP3, two-binding-site model)): 2 ± 1.9 µM; Percentage fluorescence quenched (%) (recombinant PhnsLTP3; VOC concentration 3 µM): 8.70% and 11.37% and 17.83%; Percentage fluorescence quenched (%) (recombinant PhnsLTP3; VOC concentration 30 µM): 3.75% and 8.76% and 8.44%; Percentage fluorescence quenched (%) (recombinant PhnsLTP3; VOC concentration 300 µM): 16.10% and 21.79% and 13.64%; Percentage fluorescence quenched (%) (recombinant PhnsLTP3; VOC concentration 1500 µM): 40.72% and 46.43% and 46.19%; Percentage fluorescence quenched (%) (recombinant PhnsLTP3; VOC concentration 3000 µM): 46.60% and 49.81% and 49.98% |
| O=C(OCc1ccccc1)c1ccccc1 [Benzylbenzoate] | 6.5 ± 2.7 µM | 33.25% and 16.42% and 33.70% | 72.95% and 50.76% and 70.40% |  |  |  | 21.8 ± 8.8 µM | Percentage fluorescence quenched (recombinant PhnsLTP3; VOC concentration 1 µM): 31.47% and 9.59% and 36.79%; Percentage fluorescence quenched (recombinant PhnsLTP3; VOC concentration 5 µM): 25.37% and 28.56% and 39.27%; Percentage fluorescence quenched (recombinant PhnsLTP3; VOC concentration 12 µM): 59.42% and 53.23% and 61.87% |
| OCCc1ccccc1 [2-Phenylethanol] | 395 ± 131 µM | 8.20% and 0.13% and 7.39% | 14.26% and 5.61% and 8.61% | 15.48% and 18.99% and 19.97% | 39.03% and 34.28% and 33.24% | 41.03% and 32.70% and 40.07% |  |  |
